Assay results from patent US11958857B1, “5-(1H-indol-3-yl)-1,3-substitutedpyrimido[4,5-d]pyrimidine-2,4,7(1H,3H,8H)-trione as anticancer agents” (KING FAISAL UNIVERSITY, priority 2023, dated 2024).

Columns and labels:
[1] = tested on: A2780 cells (ovarian cancer); test: single dose MTT assay, A2780; type: cell-based; conditions: 10 μM, 48 h, Mean ± SEM of three independent experiments
Excerpt: (§1) All of the target compounds 5-(1H-indol-3-yl)-1,3-substituted pyrimido[4,5-d]pyrimidine-2,4,7(1H,3H,8H)-trione derivatives (4a-c) were subjected to a single dose MTT (3-(4,5-dimethylthiazol-2-yl)-2,5-diphenyltetrazolium bromide) assay to evaluate their cytotoxicity (growth-inhibiting activities) against the breast cancer (MCF-7, MDA-MB-231), ovarian cancer (A2780, SKOV-3) and cervical cancer (HELA) cell lines. Cell lines were obtained from ATCC (American Type Culture Collection). Doxorubicin was used as a positive control.
(§2) HELA and MCF-7 cells were seeded at 10000 cells/well, while MDA-MB-231, A2780, and SKOV-3 cells were seeded at 20000 cells/well in 96 well plates to ensure that cells were non-confluent and able to proliferate over the course of the assay period. After 24 h in culture, cells were treated with test compounds 5-(1H-indol-3-yl)-1,3-substituted pyrimido[4,5-d]pyrimidine-2,4,7(1H,3H,8H)-trione derivatives (4a-c) at a single dose of 10 μM concentration and incubated for 48 h. Cells were inspected under the microscope to detect any visible morphological changes. Cells were washed with PBS, and then the cells were treated with 100 μl of 1 mg/ml fresh filtered MTT suspended in a culture medium; the plates were covered with aluminum foil and incubated for 45 min. Cell viability was marked by the conversion of MTT to the dark-blue-colored formazan by mitochondrial dehydrogenases. DMSO was added to dissolve the insoluble purple formazan product, and optical density (OD) was measured by using a spectrophotometer at a wavelength of […]. The assay was performed in the dark as MTT is light-sensitive. Control wells of culture medium only (without cells) were included as blanks for absorbance measurements.
(§3) Cell viability was calculated according to the following formula: % Cell viability=(OD sample-OD blank/OD control-OD blank)×100 where the blank is given by wells without cells (medium only), control is untreated cells (100% viable).

[2] = tested on: MDA-MB-231 cells (breast cancer); test: single dose MTT assay, MDA-MB-231; type: cell-based; conditions: 10 μM, 48 h, Mean ± SEM of three independent experiments
Excerpt: as §1, §2, §3

[3] = tested on: MCF7 cells (breast cancer); test: single dose MTT assay, MCF7; type: cell-based; conditions: 10 μM, 48 h, Mean ± SEM of three independent experiments
Excerpt: as §1, §2, §3

[4] = tested on: SKOV3 cells (ovarian cancer); test: single dose MTT assay, SKOV3; type: cell-based; conditions: 10 μM, 48 h, Mean ± SEM of three independent experiments
Excerpt: as §1, §2, §3

[5] = tested on: HeLa cells (cervical cancer); test: single dose MTT assay, HeLa; type: cell-based; conditions: 10 μM, 48 h, Mean ± SEM of three independent experiments
Excerpt: as §1, §2, §3

**Q.** Which results are given for `O=c1nc(-c2c[nH]c3ccccc23)c2c(=O)[nH]c(=O)[nH]c2[nH]1` [Compound 4a, 5-(1H-Indol-3-Yl)Pyrimido[4,5-d]Pyrimidine-2,4,7(1H,3H,8H)-Trione]?
**A.** Anticancer effect on cancer cell lines A2780 (proliferation percentage) [1]: 78 ± 3.60; Anticancer effect on cancer cell lines MDA-MB-231 (proliferation percentage) [2]: 82 ± 1.01; Anticancer effect on cancer cell lines MCF7 (proliferation percentage) [3]: 98 ± 3.15; melting point: 160 to 162 °C; Anticancer effect on cancer cell lines SKOV3 (proliferation percentage) [4]: 79 ± 0.92; Anticancer effect on cancer cell lines HeLa (proliferation percentage) [5]: 57 ± 6.13

**Q.** Which “Anticancer effect on cancer cell lines A2780 (proliferation percentage)” value [1] does the source give for `O=c1nc(-c2c[nH]c3ccccc23)c2c(=O)[nH]c(=S)[nH]c2[nH]1` [Compound 4b, 4-(1H-Indol-3-Yl)-7-Thioxo-7,8-Dihydropyrimido[4,5-d]Pyrimidine-2,5(1H,6H)-Dione] here?
**A.** The value was 82 ± 4.05.

**Q.** And the “Anticancer effect on cancer cell lines MDA-MB-231 (proliferation percentage)” value [2]?
**A.** The value was 61 ± 6.00.

**Q.** And the “Anticancer effect on cancer cell lines MCF7 (proliferation percentage)” value [3]?
**A.** The value was 68 ± 4.57.

**Q.** And the melting point?
**A.** Its melting point is 180 to 182 °C.

**Q.** What about the “Anticancer effect on cancer cell lines SKOV3 (proliferation percentage)” value [4] of the same compound?
**A.** Its value is 69 ± 1.31.

**Q.** What about the “Anticancer effect on cancer cell lines HeLa (proliferation percentage)” value [5] of the same compound?
**A.** The value was 59 ± 2.91.

**Q.** Which “Anticancer effect on cancer cell lines A2780 (proliferation percentage)” value [1] does the source give for `Cn1c(=O)c2c(-c3c[nH]c4ccccc34)nc(=O)[nH]c2n(C)c1=O` [Compound 4c, 5-(1H-Indol-3-Yl)-1,3-Dimethylpyrimido[4,5-d]Pyrimidine-2,4,7(1H,3H,8H)-Trione] here?
**A.** Its value is 63 ± 1.47.

**Q.** What about the “Anticancer effect on cancer cell lines MDA-MB-231 (proliferation percentage)” value [2] of the same compound?
**A.** Its value is 62 ± 1.35.

**Q.** What about the “Anticancer effect on cancer cell lines MCF7 (proliferation percentage)” value [3] of the same compound?
**A.** The value was 44 ± 3.90.

**Q.** What about the melting point of the same compound?
**A.** Its melting point is 256 to 258 °C.

**Q.** And the “Anticancer effect on cancer cell lines SKOV3 (proliferation percentage)” value [4]?
**A.** The value was 57 ± 3.40.

**Q.** What about the “Anticancer effect on cancer cell lines HeLa (proliferation percentage)” value [5] of the same compound?
**A.** Its value is 19 ± 1.58.
